Experimental data as given in PubChem BioAssay AID1259407 (Chemical Carcinogenesis Research Information System (CCRIS), 2018).
Calls of active or inactive are those of the source. How the calls were made is not given here.

Tested on: CCRIS mutagenicity, Ames/micronucleus/aberration tests
Experiment: CCRIS mutagenicity studies
[1] = Test System: AMES SALMONELLA TYPHIMURIUM, Strain/Indicator: TA100, Metabolic Activation: RAT, LIVER, S-9, AROCLOR 1254, Method: STANDARD PLATE

With `O[C@H]1C=Cc2c(cc3ccc4cccc5ccc2c3c45)[C@@H]1O` the mutagenic call (Test System: AMES SALMONELLA TYPHIMURIUM, Strain/Indicator: TA97, Metabolic Activation: RAT, LIVER, S-9, AROCLOR 1254, Method: STANDARD PLATE) was “active; positive”, the mutagenic call (Test System: AMES SALMONELLA TYPHIMURIUM, Strain/Indicator: TA98, Metabolic Activation: NONE, Method: HOST-MEDIATED) was “active; positive” and the mutagenic call (Test System: AMES SALMONELLA TYPHIMURIUM, Strain/Indicator: TA98, Metabolic Activation: RAT, LIVER, 3-METHYLCHOLANTHRENE, Method: LIQUID SUSPENSION) was “active; positive”. The mutagenic call (Test System: AMES SALMONELLA TYPHIMURIUM, Strain/Indicator: TA98, Metabolic Activation: RAT, LIVER, S-9, AROCLOR 1254, Method: STANDARD PLATE) was “active; positive”, the mutagenic call (Test System: AMES SALMONELLA TYPHIMURIUM, Strain/Indicator: TA98, Metabolic Activation: RAT, LIVER, S-9, Method: STANDARD PLATE) was “active; positive” and the mutagenic call (Test System: AMES SALMONELLA TYPHIMURIUM, Strain/Indicator: TA100, Metabolic Activation: EPITHELIAL CELL-MEDIATED, AROCLOR 1254, Method: PREINCUBATION) was “active; positive”. For the same molecule, the mutagenic call (Test System: AMES SALMONELLA TYPHIMURIUM, Strain/Indicator: TA100, Metabolic Activation: EPITHELIAL CELL-MEDIATED, NADPH, Method: PREINCUBATION) was “active; positive”, the mutagenic call (Test System: AMES SALMONELLA TYPHIMURIUM, Strain/Indicator: TA100, Metabolic Activation: EPITHELIAL CELL-MEDIATED, Method: PREINCUBATION) was “active; positive” and the mutagenic call (Test System: AMES SALMONELLA TYPHIMURIUM, Strain/Indicator: TA100, Metabolic Activation: KUPFFER CELL-MEDIATED, AROCLOR 1254, Method: PREINCUBATION) was “active; positive”. The mutagenic call (Test System: AMES SALMONELLA TYPHIMURIUM, Strain/Indicator: TA100, Metabolic Activation: KUPFFER CELL-MEDIATED, NADPH, Method: PREINCUBATION) was “active; positive”, the mutagenic call (Test System: AMES SALMONELLA TYPHIMURIUM, Strain/Indicator: TA100, Metabolic Activation: KUPFFER CELL-MEDIATED, Method: PREINCUBATION) was “active; positive” and the mutagenic call (Test System: AMES SALMONELLA TYPHIMURIUM, Strain/Indicator: TA100, Metabolic Activation: NONE, Method: HOST-MEDIATED) was “active; positive”. For the same molecule, the mutagenic call (Test System: AMES SALMONELLA TYPHIMURIUM, Strain/Indicator: TA100, Metabolic Activation: PARENCHYMAL CELL-MEDIATED, AROCLOR 1254, Method: PREINCUBATION) was “active; positive”, the mutagenic call (Test System: AMES SALMONELLA TYPHIMURIUM, Strain/Indicator: TA100, Metabolic Activation: PARENCHYMAL CELL-MEDIATED, NADPH, Method: PREINCUBATION) was “active; positive” and the mutagenic call (Test System: AMES SALMONELLA TYPHIMURIUM, Strain/Indicator: TA100, Metabolic Activation: PARENCHYMAL CELL-MEDIATED, Method: PREINCUBATION) was “active; positive”. For the same molecule, the mutagenic call [1] was “active; positive”, the mutagenic call (Test System: AMES SALMONELLA TYPHIMURIUM, Strain/Indicator: TA100, Metabolic Activation: RAT, LIVER, S-9, Method: STANDARD PLATE) was “active; positive” and the mutagenic call (Test System: AMES SALMONELLA TYPHIMURIUM, Strain/Indicator: TA1537, Metabolic Activation: RAT, LIVER, S-9 AROCLOR 1254, Method: STANDARD PLATE) was “inactive; negative”. For the same molecule, the mutagenic call (Test System: AMES SALMONELLA TYPHIMURIUM, Strain/Indicator: TA1538, Metabolic Activation: NONE, Method: HOST-MEDIATED) was “inactive; negative”, the mutagenic call (Test System: AMES SALMONELLA TYPHIMURIUM, Strain/Indicator: TA1538, Metabolic Activation: RAT, LIVER, S-9, Method: STANDARD PLATE) was “active; positive” and the mutagenic call (Test System: CHINESE HAMSTER V-79, Strain/Indicator: V-79/6-THIOGUANINE, Metabolic Activation: RAT, LIVER, S-9, AROCLOR 1254) was “active; positive”. The mutagenic call (Test System: CHINESE HAMSTER V-79, Strain/Indicator: V-79/8-AZAGUANINE, Metabolic Activation: CELL-MEDIATED, Method: STANDARD PLATE) was “active; positive”, the mutagenic call (Test System: CHINESE HAMSTER V-79, Strain/Indicator: V-79/8-AZAGUANINE, Metabolic Activation: NONE, Method: STANDARD PLATE) was “active; positive” and the mutagenic call (Test System: CHINESE HAMSTER V-79, Strain/Indicator: V-79/OUABAIN, Metabolic Activation: CELL-MEDIATED, Method: STANDARD PLATE) was “active; positive”. The mutagenic call (Test System: CHINESE HAMSTER V-79, Strain/Indicator: V-79/OUABAIN, Metabolic Activation: HAMSTER, EMBRYO, CELL-MEDIATED, Method: STANDARD PLATE) was “active; positive”.

With `C[C@]12CC[C@@H]3c4ccc(O)c(O)c4CC[C@H]3[C@@H]1CCC2=O` the mutagenic call (Test System: Ames Salmonella typhimurium, Strain/Indicator: TA98, Metabolic Activation: None, Method: Standard plate) was “inactive; negative”, the mutagenic call (Test System: Ames Salmonella typhimurium, Strain/Indicator: TA98, Metabolic Activation: Rat, liver, S-9, Method: Standard plate) was “inactive; negative” and the mutagenic call (Test System: Ames Salmonella typhimurium, Strain/Indicator: TA100, Metabolic Activation: None, Method: Standard plate) was “inactive; negative”. The mutagenic call (Test System: Ames Salmonella typhimurium, Strain/Indicator: TA100, Metabolic Activation: Rat, liver, S-9, Method: Standard plate) was “inactive; negative”.

With `CC(C)COP(=S)(OCC(C)C)SCCl` the mutagenic call (Test System: AMES SALMONELLA TYPHIMURIUM, Strain/Indicator: TA98, Metabolic Activation: NONE) was “inactive; negative”, the mutagenic call (Test System: AMES SALMONELLA TYPHIMURIUM, Strain/Indicator: TA98, Metabolic Activation: NONE, Method: STANDARD PLATE) was “inactive; negative” and the mutagenic call (Test System: AMES SALMONELLA TYPHIMURIUM, Strain/Indicator: TA98, Metabolic Activation: RAT, LIVER, S-9, SODIUM PHENOBARBITAL, Method: STANDARD PLATE) was “inactive; negative”. For the same molecule, the mutagenic call (Test System: AMES SALMONELLA TYPHIMURIUM, Strain/Indicator: TA98, Metabolic Activation: S-9) was “inactive; negative”, the mutagenic call (Test System: AMES SALMONELLA TYPHIMURIUM, Strain/Indicator: TA100, Metabolic Activation: NONE) was “inactive; negative” and the mutagenic call (Test System: AMES SALMONELLA TYPHIMURIUM, Strain/Indicator: TA100, Metabolic Activation: NONE, Method: STANDARD PLATE) was “inactive; negative”. For the same molecule, the mutagenic call (Test System: AMES SALMONELLA TYPHIMURIUM, Strain/Indicator: TA100, Metabolic Activation: RAT, LIVER, S-9, SODIUM PHENOBARBITAL, Method: STANDARD PLATE) was “inactive; negative”, the mutagenic call (Test System: AMES SALMONELLA TYPHIMURIUM, Strain/Indicator: TA100, Metabolic Activation: S-9) was “inactive; negative” and the mutagenic call (Test System: E. COLI, Strain/Indicator: WP2, Metabolic Activation: NONE) was “inactive; negative”. For the same molecule, the mutagenic call (Test System: E. COLI, Strain/Indicator: WP2, Metabolic Activation: RAT, LIVER, S-9, SODIUM PHENOBARBITAL, Method: STANDARD PLATE) was “inactive; negative”, the mutagenic call (Test System: E. COLI, Strain/Indicator: WP2, Metabolic Activation: S-9) was “inactive; negative” and the mutagenic call (Test System: E. COLI, Strain/Indicator: WP2 UVRA, Metabolic Activation: NONE) was “inactive; negative”. The mutagenic call (Test System: E. COLI, Strain/Indicator: WP2 UVRA, Metabolic Activation: RAT, LIVER, S-9, SODIUM PHENOBARBITAL, Method: STANDARD PLATE) was “inactive; negative” and the mutagenic call (Test System: E. COLI, Strain/Indicator: WP2 UVRA, Metabolic Activation: S-9) was “inactive; negative”.

With `OCCN1CN(CCO)CN(CCO)C1` the mutagenic call (Test System: AMES SALMONELLA TYPHIMURIUM, Strain/Indicator: TA98, Metabolic Activation: HAMSTER, LIVER, S-9, AROCLOR 1254 (10%), Method: PREINCUBATION) was “inactive; negative”, the mutagenic call (Test System: AMES SALMONELLA TYPHIMURIUM, Strain/Indicator: TA98, Metabolic Activation: NONE, Method: PREINCUBATION) was “inactive; negative” and the mutagenic call (Test System: AMES SALMONELLA TYPHIMURIUM, Strain/Indicator: TA98, Metabolic Activation: RAT, LIVER, S-9, AROCLOR 1254 (10%), Method: PREINCUBATION) was “inactive; negative”. The mutagenic call (Test System: AMES SALMONELLA TYPHIMURIUM, Strain/Indicator: TA100, Metabolic Activation: HAMSTER, LIVER, S-9, AROCLOR 1254 (10%), Method: PREINCUBATION) was “active; positive”, the mutagenic call (Test System: AMES SALMONELLA TYPHIMURIUM, Strain/Indicator: TA100, Metabolic Activation: NONE, Method: PREINCUBATION) was “inactive; negative” and the mutagenic call (Test System: AMES SALMONELLA TYPHIMURIUM, Strain/Indicator: TA100, Metabolic Activation: RAT, LIVER, S-9, AROCLOR 1254 (10%), Method: PREINCUBATION) was “inactive; negative”. The mutagenic call (Test System: AMES SALMONELLA TYPHIMURIUM, Strain/Indicator: TA1535, Metabolic Activation: HAMSTER, LIVER, S-9, AROCLOR 1254 (10%), Method: PREINCUBATION) was “inactive; negative”, the mutagenic call (Test System: AMES SALMONELLA TYPHIMURIUM, Strain/Indicator: TA1535, Metabolic Activation: NONE, Method: PREINCUBATION) was “inactive; negative” and the mutagenic call (Test System: AMES SALMONELLA TYPHIMURIUM, Strain/Indicator: TA1535, Metabolic Activation: RAT, LIVER, S-9, AROCLOR 1254 (10%), Method: PREINCUBATION) was “inactive; negative”. The mutagenic call (Test System: AMES SALMONELLA TYPHIMURIUM, Strain/Indicator: TA1537, Metabolic Activation: HAMSTER, LIVER, S-9, AROCLOR 1254 (10%), Method: PREINCUBATION) was “inactive; negative”, the mutagenic call (Test System: AMES SALMONELLA TYPHIMURIUM, Strain/Indicator: TA1537, Metabolic Activation: NONE, Method: PREINCUBATION) was “inactive; negative” and the mutagenic call (Test System: AMES SALMONELLA TYPHIMURIUM, Strain/Indicator: TA1537, Metabolic Activation: RAT, LIVER, S-9, AROCLOR 1254 (10%), Method: PREINCUBATION) was “inactive; negative”.

`O[C@H]1c2ccccc2-c2cc3ccc4ccccc4c3cc2[C@@H]1O` was tested, and the mutagenic call [1] was “active; positive”.
